Source: patent US8618147B2, “Modified macrophage migration inhibitory factor inhibitors” (The Feinstein Institute for Medical Research, priority 2006, dated 2013)
Entries after “also recorded” stand apart in the source; their conditions may differ.

How the values were obtained:
[1] = versus 40% control; cited from earlier work
[2] = biological target: MIF (Homo sapiens (Human), UniProt P14174); assay: MIF dopachrome tautomerase assay; assay type: biochemical; conditions: (S)-isomer relative to (R)-isomer
Method: MIF tautomerase activity was measured by UV-Visible recording spectrophotometry (SHIMADZU, UV1600U). A fresh stock solution of L-dopachrome methyl ester was prepared at 2.4 mM through oxidation of L-3,4-dihydroxyphenylalanine methyl ester with sodium periodate. 1 μL of MIF solution (800-900 ng/mL) and 1 μL of a DMSO solution with various concentrations of the enzymatic inhibitor were added into a plastic cuvette (10 mm, 1.5 mL) containing 0.7 mL assay buffer (50 mM potassium phosphate, pH 7.2). Then L-dopachrome methyl ester solution (0.3 mL) was added to the assay buffer mixture. Activity was determined at room temperature and the spectrometric measurements were made at λ=475 nm for 20 seconds by monitoring the rate of decolorization of L-dopachrome methyl ester in comparison to a standard solution.

[3] = system: leukocyte recruitment; assay: Air pouch carrageenan model of acute inflammation, leukocyte recruitment; assay type: in vivo, Swiss Webster male mice; conditions: 40 mg/kg single i.p., 15 min before 1% carrageenan into air pouch, 5 hr after carrageenan
Method: Air pouches were made according to standard procedures (Garcia-Ramallo et al., 2002) on Swiss Webster male mice (25-30 g) by injecting sterile air s.c. on day 0 (6 ml) and day 3 (3 ml). […] After 15 min, the animals were challenged by injecting 1 ml 1% carrageenan (in PBS) into the air pouch cavity. Five hr after carrageenan injection the animals were sacrificed, the pouches washed with PBS, exudate collected, and the total number of infiltrating cells quantitated.

[4] = system: rheumatoid arthritis fibroblast-like synoviocytes (RA-FLS); assay: Cell invasion through Matrigel Invasion Chambers; assay type: cell-based; conditions: 100 nM ISO-63 or 25 μM ISO-1, one day treatment, 24 hours incubation
Method: Invasion was assayed by measuring cell invasion through Matrigel Invasion Chambers (Becton Dickinson, Mass.). […] 500 μl of whole medium containing 10% FBS and 10% human serum and was added to the bottom chamber. After 24 hours of incubation at 37° C., cells on the upper surface of the filter were wiped off with a Q-tip and the filter was fixed in 4% formaldehyde/PBS. After staining with crystal violet, migrated cells were counted using an inverted microscope.

Sequence of MIF (P14174 2-115): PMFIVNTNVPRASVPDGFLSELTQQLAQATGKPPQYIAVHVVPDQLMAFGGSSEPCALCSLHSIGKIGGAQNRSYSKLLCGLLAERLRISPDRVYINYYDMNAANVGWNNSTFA

COC(=O)C[C@@H]1CC(c2ccc(O)cc2)=NO1 (racemic) [ISO-1, (S,R)-3-(4-hydroxyphenyl)-4,5-dihydro-5-isoxazole acetic acid methyl ester, reference compound]
protection in sepsis model [1]: 80%

COC(=O)C[C@@H]1CC(c2ccc(O)cc2)=NO1 [(S)-ISO-1]
less active than the (R)-isomer [2]: 50%

CC(C)C(OC(=O)CC1CC(c2ccc(O)c(F)c2)=NO1)C(C)C (stereo not shown) [ISO-63]
leukocyte recruitment (total number of infiltrating cells) [3]: inhibits leukocyte recruitment; also recorded: caused a significant reduction in leukocyte recruitment
invasion of RA-FLS into Matrigel (migrated cells) [4]: inhibits the invasion; also recorded: reduced cell invasion to a much greater extent than the ISO-1 treatment
